According to paper PMC5321741, “Arylmethylamino steroids as antiparasitic agents” (Nature Communications, 2017):
Read-outs that look alike come from different tables or passages of the source.

Key:
[1] = test system: P. falciparum (strain 3D7); experiment: 72 h 3H-hypoxanthine incorporation assay, asexual blood stages; format: cell-based, Plasmodium falciparum; conditions: Plasmodium falciparum
[2] = cytotoxicity on HeLa cells; format: cell-based; conditions: human, HeLa cells
Description: (§1) Compounds were tested for their antiproliferative activity on HUVEC and K-562 cells and for cytotoxicity on HeLa cells using standard protocols. K-562 (DSM ACC 10), HUVEC (ATCC CRL-1730), and HeLa (DSM ACC 57) cells were cultured as described previously. To assay the antiproliferative and cytotoxic effect, procedures were carried out as described before. In brief, for each experiment with K-562 and HeLa ∼10,000 cells were seeded per well of the 96-well microplates. For the cytotoxicity assay, the HeLa cells were preincubated for 48 h without the test substances. Cells were incubated for 72 h at 37 °C in a humidified atmosphere and 5% CO2. Suspension cultures of K-562 in microplates were analysed by an electronic cell analyzer system CASY 1 (SCHÄRFE, Reutlingen, Germany). The monolayer of the HUVEC and HeLa cells were fixed by glutaraldehyde (MERCK) and stained with a 0.05% solution of methylene blue (SERVA). After gently washing, the stain was eluted by 0.2 ml of 0.33 N HCl in the wells. The optical densities were measured at 660 nm in a microplate reader. The calculations of the different values of GI50 and CC50 were performed with the software Magellan (TECAN).

[3] = test system: HUVEC; experiment: antiproliferative activity on HUVEC cells; format: cell-based; conditions: Homo sapiens, HUVEC, 72 h
Description: as §1

[4] = test system: K-562; experiment: antiproliferative activity on K-562 cells; format: cell-based; conditions: Homo sapiens, K562, 72 h
Description: as §1

[5] = test system: haem; experiment: ESI-MS collision-induced dissociation of haem adducts; format: binding; conditions: 50 µM haem and 50 µM substrate; for DV50 (dissociation voltage at 50%) of haem adduct: ESI-CID, 20 V to 400 V; for Bottom plateau (adduct remaining at 400 V): fragmentor voltage 400 V
Description: Compound Molar Adduct DV50 Bottom Dissociation mass [Haem+S] (V) plateau Constant
Supplementary Table 7. ESI-MS-CID data (m/z, calculated DV50 = dissociation voltage at 50% and % bottom plateau) of the [haematin-drug]+ adducts and dissociation constants (KD, µM) of the haematin-drug complexes measured with absorption spectrophotometric titrations.
Conditions: 50 µM haem and 50 µM substrate in H2O/CH3CN (5/95) + 0.1% formic acid.
Stability responses of the haem substrate adduct were obtained via ESI-CID experiments.
Positive mode; fragmentor voltage from 20 V to 400 V with 20 V increments. […]
- 41/120 g), and complete dissolution was achieved using an ultrasonic bath. All solutions were protected from daylight to avoid any photochemical degradation. All the physiochemical measurements were carried out at 25.0(2) °C. […]
Electrospray mass spectrometric measurements stopping point
Electrospray mass spectra of the haem complexes were obtained with an Agilent Technologies 6120 quadrupole equipped with an electrospray (ESI) interface. For

[6] = 3D7, 72 h 3H-hypoxanthine incorporation, asexual blood stages, read-out: Antiplasmodial activity IC50 Pf (3D7)
[7] = 3D7, non-steroid-derived analogs, read-out: IC50 on P. falciparum 3D7 asexual blood stages

Question: For `COc1ccc2c(c1)CCC1C2CC[C@@]2(C)C1C[C@@H](NCc1cc(Cl)ccc1O)[C@H]2O` (stereo partly drawn) [5s], which IC50 [1, 6] is on record?
Answer: The IC50 was 0.099 µM.

Question: For `COc1ccc2c(c1)CCC1C2CC[C@@]2(C)C1C[C@H](NCc1ccccc1O)[C@H]2O` (stereo partly drawn) [6c], which CC50 at 72 h [2] is on record?
Answer: The CC50 at 72 h was 11.3 µM.

Question: And the GI50 [3]?
Answer: The GI50 was 4.4 µM.

Question: What about the IC50 [1, 6] of the same compound?
Answer: The IC50 was 0.676 µM.

Question: What about the GI50 [4] of the same compound?
Answer: The GI50 was 2.5 µM.

Question: For `COc1ccc2c(c1)CCC1C2CC[C@@]2(C)C1C[C@H](NCc1cc(C(C)(C)C)cc(C(C)(C)C)c1O)[C@H]2O` (stereo partly drawn) [6w], which IC50 [1, 6] is on record?
Answer: Its IC50 is 1.62 µM.

Question: With `COc1ccc2c(c1)CCC1C2CC[C@@]2(C)C1C[C@@H](NCc1ccccc1O)[C@@H]2O` (stereo partly drawn) [7c] as the compound, how does the CC50 at 72 h [2] read?
Answer: Its CC50 at 72 h is 10.1 µM.

Question: And the GI50 [3]?
Answer: Its GI50 is 1.2 µM.

Question: What about the IC50 [1, 6] of the same compound?
Answer: Its IC50 is 0.12 µM.

Question: What about the GI50 [4] of the same compound?
Answer: Its GI50 is 2 µM.

Question: With `COc1ccc2c(c1)CCC1C2CC[C@@]2(C)C1C[C@@H](NCc1cc(Cl)ccc1O)[C@@H]2O` (stereo partly drawn) [7s] as the compound, how does the IC50 [1, 6] read?
Answer: The IC50 was 0.055 µM.

Question: Which IC50 [1, 6] does the source give for `COc1ccc2c(c1)CCC1C2CC[C@@]2(C)C1C[C@H](/N=C/c1ccccc1O)[C@@H]2O` (stereo partly drawn) [8b] here?
Answer: The IC50 was greater than 2.5 µM.

Question: Which CC50 at 72 h [2] does the source give for `COc1ccc2c(c1)CCC1C2CC[C@@]2(C)C1C[C@H](NCc1ccccc1O)[C@@H]2O` (stereo partly drawn) [8c] here?
Answer: Its CC50 at 72 h is 5.9 µM.

Question: What about the GI50 [3] of the same compound?
Answer: The GI50 was 2.5 µM.

Question: And the IC50 [1, 6]?
Answer: Its IC50 is 0.224 µM.

Question: What about the GI50 [4] of the same compound?
Answer: Its GI50 is 0.5 µM.

Question: With `COc1ccc2c(c1)CCC1C2CC[C@]2(C)C1CC(NCc1ccccc1O)[C@@H]2O` (stereo partly drawn) [9c] as the compound, how does the CC50 at 72 h [2] read?
Answer: The CC50 at 72 h was 48.8 µM.

Question: And the GI50 [3]?
Answer: Its GI50 is 11.2 µM.

Question: And the IC50 [1, 6]?
Answer: Its IC50 is 0.999 µM.

Question: What about the GI50 [4] of the same compound?
Answer: The GI50 was 8.4 µM.

Question: With `COc1ccc2c(c1)CCC1C2CC[C@]2(C)C1C[C@@H](NCc1ccccc1O)[C@@H]2O` (stereo partly drawn) [10c] as the compound, how does the CC50 at 72 h [2] read?
Answer: Its CC50 at 72 h is 11.5 µM.

Question: What about the GI50 [3] of the same compound?
Answer: Its GI50 is 2.9 µM.

Question: And the IC50 [1, 6]?
Answer: Its IC50 is 0.084 µM.

Question: And the GI50 [4]?
Answer: Its GI50 is 2.5 µM.

Question: Which CC50 at 72 h [2] does the source give for `COc1ccc2c(c1)CCC1C2CC[C@]2(C)C1C[C@H](NCc1ccccc1O)[C@@H]2O` (stereo partly drawn) [11c] here?
Answer: The CC50 at 72 h was 6.4 µM.

Question: What about the GI50 [3] of the same compound?
Answer: The GI50 was 22 µM.

Question: What about the IC50 [1, 6] of the same compound?
Answer: The IC50 was 0.141 µM.

Question: What about the GI50 [4] of the same compound?
Answer: The GI50 was 0.1 µM.

Question: With `CC(C)CCC[C@@H](C)[C@H]1CCC2C3CCC4C[C@@H](O)[C@@H](O)[C@H](NCc5ccccc5O)[C@]4(C)C3CC[C@@]21C` (stereo partly drawn) [12c] as the compound, how does the CC50 at 72 h [2] read?
Answer: Its CC50 at 72 h is 38 µM.

Question: What about the GI50 [3] of the same compound?
Answer: Its GI50 is 12.4 µM.

Question: What about the IC50 [1, 6] of the same compound?
Answer: The IC50 was 4.36 µM.

Question: And the GI50 [4]?
Answer: Its GI50 is 16.5 µM.

Question: For `Oc1ccccc1CNC1CCCC1` [15c], which IC50 [1, 7] is on record?
Answer: The IC50 was greater than 6 µM.

Question: Which IC50 [1, 7] does the source give for `Oc1ccccc1CNC1CCCCC1` [16c] here?
Answer: The IC50 was greater than 6 µM.

Question: Which results are given for `Oc1ccccc1CNC1CCCCCCC1` [17c]?
Answer: IC50 [1, 6]: 2 µM; IC50 [1, 7]: ~2 µM

Question: Which IC50 [1, 7] does the source give for `Oc1ccccc1CNC12CC3CC(CC(C3)C1)C2` [18c] here?
Answer: Its IC50 is 4 µM.

Question: For `Oc1ccccc1CNc1ccccc1` [19c], which IC50 [1, 7] is on record?
Answer: The IC50 was greater than 15 µM.

Question: Which IC50 [1, 6] does the source give for `Oc1ccccc1/C=N/c1ccc2ccc3cccc4ccc1c2c34` [20b] here?
Answer: The IC50 was greater than 15 µM.

Question: With `Oc1cc2ccccc2cc1/C=N/c1ccc2ccc3cccc4ccc1c2c34` [20n] as the compound, how does the IC50 [1, 6] read?
Answer: Its IC50 is greater than 13 µM.

Question: For `Oc1cc2ccccc2cc1CNc1ccc2ccc3cccc4ccc1c2c34` [20o], which IC50 [1, 6] is on record?
Answer: The IC50 was greater than 13 µM.

Question: What does the source list for `COc1ccc2c(c1)CCC1C2CC[C@@]2(C)C1CC[C@@H]2N(CCCn1ccnc1)CCc1ccccn1` (stereo partly drawn) [STS 948]?
Answer: CC50 at 72 h [2]: 18.3 µM; GI50 [3]: 7.2 µM; IC50 [1, 6]: 0.675 µM; GI50 [4]: 6.6 µM; DV50 (dissociation voltage at 50%) of haem adduct [5]: 367 V; Bottom plateau (adduct remaining at 400 V) [5]: 36%

Question: With `CCN(CC)Cc1cc(Nc2ccnc3cc(Cl)ccc23)ccc1O` [amodiaquine, reference compound] as the compound, how does the “DV50 (dissociation voltage at 50%) of haem adduct” value [5] read?
Answer: The value was 212 V.

Question: What about the “Bottom plateau (adduct remaining at 400 V)” value [5] of the same compound?
Answer: Its value is 7%.

Question: What does the source list for `C=CC1=C(C)c2cc3[n-]c(cc4[n-]c(cc5nc(cc1n2)C(C)=C5C=C)c(C)c4CCC(=O)O)c(CCC(=O)O)c3C.O.[Fe+2]` [hematin, reference compound]?
Answer: DV50 (dissociation voltage at 50%) of haem adduct [5]: 329 V; Bottom plateau (adduct remaining at 400 V) [5]: ~ 28%
